# Results: patent US8003797B2, “Pyridine carboxamide orexin receptor antagonists” (Merck Sharp & Dohme Corp., priority 2007, dated 2011)
# Molecular target: T1, OX2R (Homo sapiens, UniProt O43614)
# T1 construct: expressed in transfected cells; host or cells: CHO cells (membranes)
# T1 sequence (O43614 1-444): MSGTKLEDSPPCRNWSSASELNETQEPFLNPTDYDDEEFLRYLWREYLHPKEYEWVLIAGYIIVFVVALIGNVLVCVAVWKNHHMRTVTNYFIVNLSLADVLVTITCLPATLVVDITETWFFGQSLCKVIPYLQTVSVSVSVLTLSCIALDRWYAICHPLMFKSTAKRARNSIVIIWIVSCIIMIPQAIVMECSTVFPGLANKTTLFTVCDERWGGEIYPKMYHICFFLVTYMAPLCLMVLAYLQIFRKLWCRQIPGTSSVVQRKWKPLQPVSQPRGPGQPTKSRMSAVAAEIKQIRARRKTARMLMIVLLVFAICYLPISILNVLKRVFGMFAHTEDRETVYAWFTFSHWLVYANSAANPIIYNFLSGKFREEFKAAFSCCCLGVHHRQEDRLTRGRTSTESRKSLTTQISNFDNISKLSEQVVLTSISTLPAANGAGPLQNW
# Experiment: radioligand binding assay, OX2 receptor
# Conditions: membranes prepared from CHO cells expressing the OX2 receptor
# Procedure: In a typical experiment the OX1 and OX2 receptor antagonistic activity of the compounds of the present invention was determined in accordance with the following experimental method. For intracellular calcium measurements, Chinese hamster ovary (CHO) cells expressing the rat orexin-1 receptor or the human orexin-2 receptor, are grown in Iscove's modified DMEM containing 2 mM L-glutamine, […], 1% hypoxanthine-thymidine supplement, 100 U/ml penicillin, 100 ug/ml streptomycin and 10% heat-inactivated fetal calf serum (FCS). The cells are seeded at 20,000 cells/well into Becton-Dickinson black 384-well clear bottom sterile plates coated with poly-D-lysine. All reagents were from GIBCO-Invitrogen Corp. The seeded plates are incubated overnight at 37° C. and 5% CO2. Ala-6,12 human orexin-A as the agonist is prepared as a 1 mM stock solution in 1% bovine serum albumin (BSA) and diluted in assay buffer (HBSS containing 20 mM HEPES, 0.1% BSA and 2.5 mM probenecid, pH7.4) for use in the assay at a final concentration of 70 pM. Test compounds are prepared as 10 mM stock solution in DMSO, then diluted in 384-well plates, first in DMSO, then assay buffer. On the day of the assay, cells are washed 3 times with 100 ul assay buffer and then incubated for 60 min (37° C., 5% CO2) in 60 ul assay buffer containing 1 uM Fluo-4AM ester, 0.02% pluronic acid, and 1% BSA. The dye loading solution is then aspirated and cells are washed 3 times with 100 ul assay buffer. 30 ul of that same buffer is left in each well. Within the Fluorescent Imaging Plate Reader (FLIPR, Molecular Devices), test compounds are added to the plate in a volume of 25 ul, incubated for 5 min and finally 25 ul of agonist is added. Fluorescence is measured for each well at 1 second intervals for 5 minutes and the height of each fluorescence peak is compared to the height of the fluorescence peak induced by 70 pM Ala-6,12 orexin-A with buffer in place of antagonist. For each antagonist, IC50 value (the concentration of compound needed to inhibit 50% of the agonist response) is determined. Alternatively, compound potency can be assessed by a radioligand binding assay (described in Bergman et. al. Bioorg. Med. Chem. Lett. 2008, 18, 1425-1430) in which the inhibition constant (Ki) is determined in membranes prepared from CHO cells expressing either the OX1 or OX2 receptor. The intrinsic orexin receptor antagonist activity of a compound which may be used in the present invention may be determined by these assays.
row,Molecule,Ki [pM]
1,"COc1cc(CNC(=O)c2cc(-c3cc(C)cc(C)c3)cnc2-c2cnn(C)c2)cnc1OC [1-13, N-[(5,6-dimethoxypyridin-3-yl)methyl]-5-(3,5-dimethylphenyl)-2-(1-methyl-1H-pyrazol-4-yl)nicotinamide]",4800
2,"Cc1[nH]c2cc(CNC(=O)c3cc(-c4cc(Cl)cc(Cl)c4)cnc3-c3cnn(C)c3)ccc2c1C [1-14, 5-(3,5-dichlorophenyl)-N-[(2,3-dimethyl-1H-indol-6-yl)methyl]-2-(1-methyl-1H-pyrazol-4-yl)nicotinamide]",70
3,"COc1ccc(CNC(=O)c2cc(-c3cncc(C)c3)cnc2-c2cccc(F)c2)nc1OC [3-7, N-[(5,6-dimethoxypyridin-2-yl)methyl]-6-(3-fluorophenyl)-5′-methyl-3,3′-bipyridine-5-carboxamide]",320
4,"COc1ccc(CNC(=O)c2cc(-c3cncc(Cl)c3)cnc2-c2ccccc2)nc1OC [3-15, 5′-chloro-N-[(5,6-dimethoxypyridin-2-yl)methyl]-6-phenyl-3,3′-bipyridine-5-carboxamide]",450
5,"COc1ccc(CNC(=O)c2cc(-c3cncc(C)c3)cnc2N2CCOCC2)nc1OC [4-13, N-[(5,6-dimethoxypyridin-2-yl)methyl]-5′-methyl-6-morpholin-4-yl-3,3′-bipyridine-5-carboxamide]",1100
6,"COc1ccc(CNC(=O)c2cc(-c3cncc(C)c3)cnc2-n2ccc(C)n2)cc1Cl [5-11, N-(3-chloro-4-methoxybenzyl)-5′-methyl-6-(3-methyl-1H-pyrazol-1-yl)-3,3′-bipyridine-5-carboxamide]",950

# More lines, now with the values ahead:
row,Ki [pM],Molecule
1,150,"5-(3,5-chloromethylphenyl)-N-[(1,4-dimethyl-1,2,3,4-tetrahydroquinoxalin-6-yl)methyl]-2-(1-methyl-1H-pyrazol-4-yl)nicotinamide [2-14]"
2,450,"COc1ccc(CNC(=O)c2cc(-c3cc(C)cc(Cl)c3)cnc2N2CCCC2)cc1OC [4-5, 5-(3-chloro-5-methylphenyl)-N-(3,4-dimethoxybenzyl)-2-pyrrolidin-1-ylnicotinamide]"
3,2300,"COc1ccc(CNC(=O)c2cc(-c3cncc(C)c3)cnc2C2CCCC2)cc1OC [6-5, 6-cyclopentyl-N-(3,4-dimethoxybenzyl)-5-methyl-3,3′-bipyridine-5-carboxamide]"
